{
  "source": "patent US9549946B2",
  "about": "“Materials and methods for preventing and treating microbe-mediated epithelial disorders” (priority 2002, dated 2017)",
  "system": "human intestinal epithelial cells",
  "test": "Epithelial transport function (Na+/H+ exchange, glucose transport)",
  "type": "cell-based",
  "description": "The resistance of PEG-cultured human intestinal epithelial cells to the barrier-disrupting effects of P. aeruginosa, as judged by the maintenance of TEER, offers a practical approach to stabilizing tight junctional barrier function in the face of a challenge from invading pathogens. Further evidence of the therapeutic value of PEG 15-20 is that epithelial transport function (Na^+/H^+ exchange, glucose transport) is unaffected by this compound.",
  "data": [
    {"substance": "polyethylene glycol [PEG 15-20]", "values": [
      {"measurement": "epithelial transport function (Na+/H+ exchange, glucose transport)", "value": "unaffected"}
    ]}
  ]
}
